{"source": "patent US10105319B2", "about": "(Murray and Poole Enterprises Limited, priority 2013, dated 2018)", "key": {"[1]": {"tested_on": "patients with clinically stable coronary disease", "assay": "LoDoCo Trial: colchicine 0.5 mg/day added to standard secondary prevention", "assay_type": "in vivo, human", "method": "This study is described in PCT/AU2013/001261 and is hereby incorporated in its entirety by reference.\nAll outcomes were evaluated by an experienced adjudicator blinded to the treatment allocation.\nPatients with a history of bypass surgery were only eligible if they had undergone bypass surgery more than 10 years before, or had angiographic evidence of graft failure or had undergone stenting since their bypass surgery. All patients signed informed consent before randomization.\nThe randomization sequence was computer generated, kept concealed from the investigators at all times and was managed by a research assistant who had no involvement in the evaluation or management of study patients. […] Patients who were intolerant to therapy remained in the study, and were followed in the usual manner and included in the primary intention to treat analysis.\nThe drug was dispensed by their usual chemist, and if requested, patients were reimbursed for the cost of these scripts. All other treatments were continued as usual.\nPatient compliance with treatment and outcome data were collected at routine follow up visits and at the time of any unplanned hospital admission. An acute coronary syndrome (ACS) was defined as either (a) Acute Myocardial Infarction (AMI), as evidenced by acute ischemic chest pain associated with a rise in serum troponin above the upper limit of normal or (b) Unstable Angina (UA), as evidenced by a recent acceleration of the patient's angina unassociated with a rise in serum troponin but associated with angiographic evidence of a change in the patient's coronary anatomy. (Unstable Angina Braunwald classification types IB and IIB). The ACS was characterized as being stent-related if there was evidence of significant in-stent stenosis or acute stent thrombosis. Out of Hospital Cardiac Arrest was defined as either a sudden death as evidenced on the patient's death certificate, or a non-fatal out of hospital cardiac arrest, defined as a recovery from sudden collapse associated with documented asystole, ventricular tachycardia or ventricular fibrillation. Noncardioembolic ischemic stroke was defined as CT or MRI proven ischemic stroke adjudged by the treating neurologist as not being due to atrial fibrillation or intracranial hemorrhage.\nThe primary efficacy outcome was the composite, ACS, fatal or non-fatal out of hospital cardiac arrest or non-cardio-embolic ischemic stroke. Secondary outcomes were (a) individual components of the primary outcome, and (b) the components of ACS unrelated to stent disease.\nThe pre-specified study duration was a minimum follow up of two years in all patients. Accordingly the study was closed on May 31, 2012. During May, all living patients were contacted by phone to collect compliance and outcome data from the last date of follow-up.\nSummary statistics, including mean and standard deviation were calculated for all baseline characteristics by treatment arm. All time to event outcomes were calculated in days by subtracting the date of randomization from either: (1) the date of event or death; or (2) the trial termination date for those patients not experiencing the defined event. As pre-specified, the primary efficacy analysis was based on the intention-to-treat principle. The intention-to-treat analysis included all randomized subjects and all events during the time from randomization to the trial termination. Trial termination date was fixed as May 31, 2012. A secondary pre-specified on-treatment analysis was also performed, based on patients who were both tolerant and compliant to therapy beyond the first month of randomization.\nThe time-to-first-event for all outcomes is presented using a Kaplan-Meier plot. […] The secondary outcomes were analysed similarly."}, "[2]": {"tested_on": "patients with clinically stable coronary disease", "settings": "0.5 mg/day in addition to statins; Nidorf et al., JACC 2013; cited from earlier work"}, "[3]": {"tested_on": "patients with a first episode of acute pericarditis", "settings": "at 18 months; conventional treatment plus colchicine 0.5 to 1.0 mg/day for 3 months; p=0.004; cited from earlier work"}, "[4]": {"tested_on": "patients with a first episode of recurrent pericarditis", "settings": "at 18 months; conventional treatment plus colchicine 0.5-1.0 mg/d for 6 months; cited from earlier work"}}, "data": [{"smiles": "COc1cc2c(c(OC)c1OC)-c1ccc(OC)c(=O)cc1[C@@H](NC(C)=O)CC2", "note": "[colchicine, N[5,6,7,9-tetrahydro-1,2,3,10-tetratmethoxy 9-oxobenzo[a]heptalen-7-yl],(S)-acetamide]", "values": [{"measurement": "patients with AMI (ACS unrelated to stent disease)", "setting": "[1]; 0.5 mg/day, 4/282", "result": 1.4, "unit": "%"}, {"measurement": "patients with UA (ACS unrelated to stent disease)", "setting": "[1]; 0.5 mg/day, 5/282", "result": 1.8, "unit": "%"}, {"measurement": "patients with an ACS unrelated to stent disease", "setting": "[1]; 0.5 mg/day, 9/282", "result": 3.2, "unit": "%"}, {"measurement": "patients presenting with an ACS", "setting": "[1]; 0.5 mg/day, 13/282", "result": 4.6, "unit": "%"}, {"measurement": "patients with primary outcome (ACS, out of hospital cardiac arrest or non-cardio-embolic ischemic stroke)", "setting": "[1]; 0.5 mg/day, intention to treat, 15/282, median follow up 36 months", "result": 5.3, "unit": "%"}, {"measurement": "patients reporting early intolerance due to gastrointestinal side effects", "setting": "[1]; 32 of 282 randomized to treatment", "result": 11, "unit": "%"}, {"measurement": "patients who died", "setting": "[1]; colchicine group, all of non-cardiac causes, 10 in control group", "result": 4, "unit": "patients"}, {"measurement": "out of hospital cardiac arrest and non-cardio-embolic ischemic stroke", "setting": "[1]; treatment group vs control", "result": "infrequent but were also reduced"}, {"measurement": "prevention of cardiovascular events", "setting": "[2]", "result": "appeared effective"}, {"measurement": "recurrence rate", "setting": "[3]", "result": 10.7, "unit": "%"}, {"measurement": "recurrence rate (actuarial rate)", "setting": "[4]", "result": 24.0, "unit": "%"}]}]}
